Common to all, as to type: physicochemical
Series [1] is described as follows: Stabilization of avobenzone in presence of single carotenoids. The settings on record: for protective activity vs avobenzone degradation: lycopene 1.6 mg/mL in squalane. The method, then: (§1) Key elements for this test are: consistent irradiation (known and consistent light source and positioning of samples with respect to the light source); optimal exposure of the sample to UV light (thin but consistent layer sample, in a flat vessel with no high walls which could screen out UV light); consistent sampling (especially recovery of irradiated material for analysis). Under the instant method, irradiation takes place in the Innova 4340 incubator, fitted with UV tubes (UVC: Osram Puritec-HNS3OVG13-G30T8/OF; UVB: Voltarc E312/F30T8; UVA: Sylvania F30T8/350BL)—allowing for intense, known, reproducible and even irradiation (a known illuminant is the single source of light—a wide light source and the incubator's metallic walls also help achieve even illumination). Samples are exposed in Brand plastic vial caps made of polyethylene, 26 mm diameter, 5 mm wall height, 400 μL sample volume, in triplicates, generally introduced as solutions in suitable oil carriers)—enabling irradiation of a relatively even and thin layer while allowing consistent sample recovery.
Analysis of the avobenzone content of the samples was done by UV spectroscopy (absorption @ 350 nm for avobenzone; sample dilution ×400 in hexanes). As phytofluene absorbs in the UV range relevant to our measure of avobenzone, blank TCLC samples (i.e. without avobenzone) were irradiated in parallel with test samples and absorption @ 350 nm was measured before and after irradiation. This absorption was deducted from the avobenzone absorption data, producing the corrected data shown here (unless noted otherwise).
Based on the above results, degradation of avobenzone was next measured in the presence of single carotenoids, specifically: phytoene (PE), phytofluene (PF), zeta-carotene (ZC) and Lycopene (LY).
Carotenoids levels: for the purposes of these experiments, phytoene was tested at 1.3 mg/mL; phytofluene was tested at 0.3 mg/mL; zeta-carotene and lycopene were tested at 1.6 mg/mL.
Irradiation was carried out with combined UVA+UVB (4:2, 18 h) and UVA+UVB+UVC (3:2:1, 10 h).

Series [2] in a line: 3% avobenzone cream, in vitro SPF/UVA-PF and photo stability (Colipa 2009). The following applies: UVA dose 10 J/cm^2, Suntest. As for the experimental part: Following the convincing results from the studies described above, a preliminary study with a basic cream containing 3% avobenzone labelled 703-1, to which phytoene and phytofluene (0.0075%), was added and labelled 703-2, was conducted to determine the contribution of phytofluene to sun protection and photo stability of avobenzone under UVA following the Colipa 2009 in vitro Standard Guidelines. Approximately 1.7 mg/cm^2 of each composition is applied to 5 PMMA plates (Helioplates-HD-6, Helioscreen®, Source: Labsphere, North Sutton, N.H.), respectively, and allowed to equilibrate for at least 15 minutes. Absorbance spectra from 5 locations on each plate are measured using a UV2000 Sunscreen Analyzer (Labsphere, North Sutton, N.H.). […] Plate temperatures are 25-35° C. Mean UVA protection factors at each UV dose are then computed for each test product, using Colipa UVA Protection Factor Test Method Spreadsheet, and mean absorbance spectra from 290 to 400 nm is obtained.

Series [3] in a line: UV absorbance spectra / absorption maximum. The settings on record: FIG. 10.
Series [4] in a line: Effect of phytoene/phytofluene levels and ratio variations on avobenzone stabilization. The settings on record: combined UVA+UVB+UVC 10 h; low 0.3 mg/mL, high 1.3 mg/mL; listed as PE. As for the experimental part: as §1, with “Samples are exposed in Brand plastic vial caps made of polyethylene, 26 mm diameter, 5 mm wall height, 400 μL sample volume, in triplicates, generally introduced as solutions in suitable oil carriers)—enabling irradiation of a relatively even and thin layer while allowing consistent sample recovery.” left out
Analysis of the avobenzone content of the samples was done by UV spectroscopy (absorption @ 350 nm for avobenzone; sample dilution ×400 in hexanes). As phytofluene absorbs in the UV range relevant to our measure of avobenzone, blank TCLC samples (i.e. without avobenzone) were irradiated in parallel with test samples and absorption @ 350 nm was measured before and after irradiation. […]

“Also recorded” adds a separate entry of the source.

Turning to `CC(C)=CCC/C(C)=C/C=C/C(C)=C/C=C/C(C)=C/C=C/C=C(C)/C=C/C=C(C)/C=C/C=C(\C)CCC=C(C)C` [Lycopene], the “protective activity vs avobenzone degradation” value in series [1] (combined UVA+UVB 4:2, 18 h) was “slight protective activity”; in series [1] (combined UVA+UVB+UVC 3:2:1, 10 h) it was “no significant activity”.

For `CC(C)=CCC/C(C)=C/CC/C(C)=C/C=C/C(C)=C/C=C/C=C(\C)CC/C=C(\C)CC/C=C(\C)CCC=C(C)C` [phytofluene], the “boost to UVA-PF” value in series [2] is “addition to UVA-Pf”. The “λmax of absorbance spectra” value in series [3] is 348 nm.

Turning to `CC(C)=CCC/C(C)=C/CC/C(C)=C/C=C/C(C)=C/C=C/C=C(C)/C=C/C=C(\C)CC/C=C(\C)CCC=C(C)C` [Zeta-carotene, zeta-carotene], the “stabilizing / protective effect on avobenzone” value in series [1] (UVA+UVB (18 h) and UVA+UVB+UVC (10 h), not distinguished, phytoene 1.3, phytofluene 0.3, zeta-carotene 1.6 mg/mL) is on record as “some protective activity”.

With `CC(C)=CCC/C(C)=C/CC/C(C)=C/CC/C(C)=C/C=C/C=C(\C)CC/C=C(\C)CC/C=C(\C)CCC=C(C)C` [phytoene], the “protective activity vs degradation of avobenzone” value in series [4] was “level-dependent; also recorded: roughly comparable activities”. Also, the “λmax of absorbance spectra” value in series [3] came out at 286 nm.

The record behind these values is patent US20110212040A1, “STABILIZED SUNSCREEN COMPOSITIONS” (priority 2010, published 2011).
